How the values were obtained:
[1] = system: cholesterol in blood serum; test: Blood serum cholesterol reduction by eritadenine; type: in vivo, human
From the text: As regards the therapeutic action of eritadenine it should be noted that it acts endogenously in a dose-dependent manner and can be used as a functional food component in small doses for reducing the total cholesterol of normal human beings. By contrast, existing methods provide for food components having an exogenous effect on the cholesterol balance and these dietary components therefore have to be used in extremely large doses in comparison to eritadenine. […] The present invention makes it possible to produce a functional food component which acts in a druglike manner influencing human phospholipidic metabolic step sequences, still preserving the true features of a functional food component. As mentioned above, eritadenine has the additive effects of not only dose-dependent, endogenous cholesterol-depression but also therapeutic effects like endogenous linoleic acid formation and blood plasma viscosity reduction.
It acts in a drug-like manner, inhibiting the endogenous synthesis of cholesterol metabolism and the enterohepatic fat circle. d-eritadenine is effective in very low absorbed doses, at 1 ppm+-level, ensuring safety and essential metabolic step preservation.
Thus, the addition of eritadenine, especially d-eritadenine, to an exogenously acting existing functional food will more than double the cholesterol-depressing effect due to enterohepatic and exterohepatic multiplicatory effects. Mathematically consecutive 10% reductions would give […] total reduction, and consecutive 15% reductions would give 28% total reduction, by the present invention, due to the feedback inhibition created by the simultaneous exogenous and endogenous actions of the food components, a greater decrease of the cholesterol level will be achieved. The food compositions according to the present invention may therefore comprise a (conventional) food component having an exterohepatic cholesterol depressing effect. Such a food component can be selected from the group of fibers, chitosan, tocotrienols, plant sterols, stanol esters and sitostanol esters. […]

SAH hydrolase = SAH hydrolase (Homo sapiens, UniProt P23526)
Sequence of SAH hydrolase (P23526 whole entry): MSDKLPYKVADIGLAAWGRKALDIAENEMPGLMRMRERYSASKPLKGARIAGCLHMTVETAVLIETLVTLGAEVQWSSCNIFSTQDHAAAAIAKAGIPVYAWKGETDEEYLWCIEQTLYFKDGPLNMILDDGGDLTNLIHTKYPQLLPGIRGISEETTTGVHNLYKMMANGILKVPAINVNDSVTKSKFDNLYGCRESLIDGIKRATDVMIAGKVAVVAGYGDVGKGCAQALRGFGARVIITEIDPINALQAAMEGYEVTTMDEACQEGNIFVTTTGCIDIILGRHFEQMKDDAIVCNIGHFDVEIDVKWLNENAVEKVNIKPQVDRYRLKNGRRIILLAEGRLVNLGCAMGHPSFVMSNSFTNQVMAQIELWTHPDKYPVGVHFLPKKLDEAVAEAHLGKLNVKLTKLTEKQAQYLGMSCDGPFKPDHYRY
From the text: It is possible to achieve favourable changes in the blood plasma cholesterol pattern by reducing the molar ratio of total cholesterol/phospholipid ratio and/or changing the phospolipid molar ratio of PC/PE and/or inhibiting enzymatically controlled reactions where PC and PE is directly or indirectly via the SAM/SAH cycle involved. The following theory has been formulated: • Step 1: Total PL and PL (phospholipids) composition may be changed by kinetics of the SAM and SAH cycle. • Step 2: SAM and SAH concentrations are inhibited/stimulated by intervening in the methionine and cysteine metabolism • Step 3: In this metabolism SAH degradation to adenosine and homocysteine is an enzymatic reaction catalysed by SAH hydrolase. By inhibiting partially, not totally, SAH hydrolase, the concentration of SAH will rise affecting the SAM/SAH ratio and step 1 will be executed.
Eritadenine has been tested for use in the above model.

Solubility = type: physicochemical
[2] = system: cholesterol in blood serum; conditions: Merck Index, 12th Edition; cited from earlier work

dose needed for SAH hydrolase inhibition (SAH hydrolase) | extent of SAH hydrolase inhibition (SAH hydrolase) | speed of SAH hydrolase inhibition (SAH hydrolase) | solubility in fats (Solubility) | SMILES | reduction of cholesterol ([1]; 5 to 50 mg as dose response, depending on the dietary cholesterol amount) [%] | effective absorbed dose level ([1]; absorbed dose) [ppm] | relative efficiency among eritadenine isomers ([1]; compared with l-eritadenine (2S,3S) and threo isomers) | effect on concentration of cholesterol in blood serum [2]
inhibits already in small doses | inhibits partially, no total blocking | rapid |  | Nc1ncnc2c1ncn2C[C@@H](O)[C@@H](O)C(=O)O [d-eritadenine, 2(R), 3(R)-dihydroxy-4-(9-adenyl)butyric acid] | > 20 | ≥ 1 | most efficient | 
 |  |  | soluble in fats | Nc1ncnc2c1ncn2C[C@@H](O)[C@@H](O)C(=O)O [Eritadenine] |  |  |  | capable of reducing the concentration of cholesterol in blood serum
